For experiment [1], the system named is male SD rats. As to the kind of experiment: Elevated plus-maze test in rats (antianxiety effect). The class given is in vivo, rat. To be noted: for antianxiety effect: overall conclusion in words, elevated plus-maze test. From the text:
(§1) The isoquinoline derivative rep-resented by formula (I) has a marked effect in the forced swim test, which is the animal model for mood disorder, and in the elevated plus-maze test, which is the animal model for anxiety disorder. Thus, the isoquinoline derivative can be used as a drug for curing or preventing mood disorder or anxiety disorder of mammal and, in particular, human beings. It may also be used in manufacturing of a medicament for curing or preventing mood disorder or anxiety disorder. The evaluation using the above-described animal models can be conducted by a method described in published references [Nature vol. 266, 730 (1977) or Jpn. J. Psychopharmacol vol. 15, 125 (1995)], but the method is not limited to this.
Assessment of Antianxiety Effect by the Elevated Plus-Maze Test in Rats
The experiment was conducted on male SD rats. In the elevated plus-maze test, the elevated plus-maze (manufactured by NeuroScience, Inc.) consisting of closed arms and open arms was used. In the experiment, a rat was placed on an open arm 30 minutes after the drug administration (subcutaneous administration), and the number of entries to the open and closed arms and the time spent in the open arms were measured. The test was conducted for 3 minutes. The rat was assumed to have made entries when all four legs have entered the arm. The ratio of the time spent in the open arms and the ratio of the entries to the open arms were calculated according to the following equations:
Ratio of the time spent in the open arms (%)={(time spent in the open arms)/(total time)}×100
Ratio of the entries to the open arms (%)={(number of entries to the open arms)/(total number of entries)}×100
The vertical axis on the left indicates the ratio of the time spent in the open arms (%) and the ratio of the entries to the open arms (%). The vertical axis on the right indicates the total number of entries. The horizontal axis indicates a control group and treatment groups. Open columns indicate the ratio of the time spent in the open arms (%) and hatched columns indicate the ratio of the entries to the open arms (%). Closed circles indicate the total number of entries. All data are indicated by average ±standard error. In a significance test, the difference was assumed to be significant at a significance level of 5% or less by Dunnett's multiple comparison. In the test, the drug is assumed to have an antianxiety effect when there are an increase in time spent on open arms and an increase in ratio of entries to open arms under administration.

The subject of experiment [2] is male ICR mice. As to the kind of experiment: Forced swim test in mice (antidepressant effect). To be noted: for antidepressant effect: overall conclusion in words, forced swim test. It counts as in vivo, mouse.
From the text: as §1
Assessment of antidepressant effect by the forced swim test in mice
In the experiment, male ICR mice were used. In the forced swim test, the tank for forced swim used was a transparent cylindrical tank made of plastic (inner diameter: 10 cm, height: 30 cm), and water at 25° C. was contained up to 14 cm in height. A mouse was placed in water, and its swimming time during 2 to 6 minutes after placement was measured. The drug was subcutaneously administered 30 minutes before testing. The vertical axis indicates the swimming time (sec) during the measurement time (4 min). The open column indicates a saline-treated group and the hatched columns indicate Compound 1 treatment groups. All data are indicated by average ±standard error. In a significance test, the difference was assumed to be significant at a significance level of 5% or less by Dunnett's multiple comparison. In the test, the drug is assumed to have an antidepressant effect when there is an increase in swimming time under administration.

[3] abbreviates: FIG. 1, treatment groups vs saline-treated control, s.c., Dunnett's multiple comparison, 5% level.

In the case of `Cc1c2c(nc3ccccc13)C[C@@]1(c3cccc(O)c3)CCN(C)C[C@@H]1C2` (relative stereo) [Compound 3, 2-methyl-4aα-(3-hydroxyphenyl)-11-methyl-1,2,3,4,4a,5,12,12aβ-octahydro-quinolino [2,3-g]isoquinoline], the antianxiety effect result in experiment [1] is given as “significant antianxiety effects”. Moreover, in experiment [2], the antidepressant effect result was “significant antidepressant effect”.

Consider `CN1CC[C@]2(c3cccc(O)c3)Cc3nc4ccccc4c(N)c3C[C@H]2C1` (relative stereo) [Compound 5, 2-methyl-4aα-(3-hydroxyphenyl)-11-amino-1,2,3,4,4a,5,12,12aβ-octahydro-quinolino,[2,3-g]isoquinoline], for which, in experiment [1], the antianxiety effect entry is reported as “significant antianxiety effects”. Besides, in experiment [2], the antidepressant effect entry was “significant antidepressant effect”.

Take `Oc1cccc([C@]23CCN(CCc4ccccc4)C[C@@H]2Cc2cc4ccccc4nc2C3)c1` (relative stereo) [Compound 6, 2-phenethyl-4aα-(3-hydroxyphenyl)-1,2,3,4,4a,5,12,12aβ-octahydro-quinolino [2,3-g]isoquinoline]: the antianxiety effect entry in experiment [1] is listed as “significant antianxiety effects”. In addition, in experiment [2], the antidepressant effect result is reported as “significant antidepressant effect”.

Turning to `CN1CC[C@]2(c3cccc(O)c3)Cc3nc4ccccc4cc3C[C@@H]2C1` [Compound 1, (4aS,12aS)-2-methyl-4a-(3-hydroxyphenyl)-1,2,3,4,4a,5,12,12a-octahydroquinolino [2,3-g]isoquinoline], in experiment [1] (setting [3]), the “ratio of the entries to open arms” value is “dose-dependent significant increase” and the “time spent in open arms” value is “dose-dependent significant increase”. Moreover, the antianxiety effect entry in experiment [1] was “confirmed to have an antianxiety effect”. Also, the swimming time entry in experiment [2] (FIG. 2, treatment groups vs saline-treated control, s.c., Dunnett's multiple comparison, 5% level) is recorded as “dose-dependent significant increase”. Also, the antidepressant effect entry in experiment [2] is on record as “confirmed to have an antidepressant effect”.

(Values after US20030166656A1, “Therapeutic or preventive medicines for mood disorders or anxiety disorders” (priority 2003, published 2003).)
